Measured values published in the NIST ThermoML archive (doi:10.1021/acs.jced.7b01053).

Assay: mn = molality of the nth substance listed, in mol/kg
Details: 293 K, 100 kPa, Liquid, Alternating current cell with electrodes

CCCCC(=O)[O-].C[NH2+]CCO [2-hydroxy-N-methylethanaminium pentanoate] + O
Details	electrical conductivity [S/m]
m1 = 0.01138	0.049
m1 = 0.01396	0.062
m1 = 0.02431	0.098
m1 = 0.02742	0.113
m1 = 0.03923	0.149
m1 = 0.0421	0.165
m1 = 0.05224	0.191
m1 = 0.05579	0.209
m1 = 0.0607	0.269
m1 = 0.06705	0.238
m1 = 0.08075	0.293
m1 = 0.08328	0.31
m1 = 0.09553	0.335
m1 = 0.09605	0.33
m1 = 0.1092	0.375
m1 = 0.1095	0.408
m1 = 0.1224	0.445
m1 = 0.124	0.416
m1 = 0.1358	0.479
m1 = 0.1372	0.449
m1 = 0.1484	0.513
m1 = 0.1505	0.485
m1 = 0.1608	0.544
m1 = 0.1632	0.498
m1 = 0.1727	0.572
m1 = 0.1759	0.527
m1 = 0.1844	0.597
m1 = 0.1879	0.551
m1 = 0.1947	0.612
m1 = 0.1999	0.578
m1 = 0.2059	0.635
m1 = 0.2113	0.602
m1 = 0.2164	0.656
m1 = 0.2226	0.62
m1 = 0.226	0.677
m1 = 0.2329	0.642
m1 = 0.2359	0.697
m1 = 0.2427	0.663
m1 = 0.2451	0.709
m1 = 0.2523	0.682
m1 = 0.2541	0.727
m1 = 0.262	0.701
m1 = 0.2625	0.744
m1 = 0.2703	0.76
m1 = 0.2709	0.717
m1 = 0.2783	0.776
m1 = 0.2797	0.735
m1 = 0.2853	0.79
m1 = 0.2882	0.75
m1 = 0.2929	0.804
m1 = 0.2964	0.766
m1 = 0.2998	0.818
m1 = 0.304	0.781
m1 = 0.3065	0.83
m1 = 0.3114	0.794
m1 = 0.3129	0.842
m1 = 0.3184	0.808
m1 = 0.3191	0.853
m1 = 0.3249	0.868
m1 = 0.3255	0.819
m1 = 0.3307	0.88
m1 = 0.3317	0.834
m1 = 0.336	0.893
m1 = 0.3378	0.847
m1 = 0.3413	1.04
m1 = 0.3437	0.858
m1 = 0.3493	0.87
m1 = 0.3546	0.882

CCCC(=O)[O-].C[NH2+]CCO [N-methyl-2-hydroxyethylammonium butanoate] + O
Details	electrical conductivity [S/m]
m1 = 0.01443	0.041
m1 = 0.01609	0.047
m1 = 0.03059	0.077
m1 = 0.03161	0.084
m1 = 0.04718	0.115
m1 = 0.04851	0.122
m1 = 0.06311	0.149
m1 = 0.06401	0.155
m1 = 0.08077	0.185
m1 = 0.08176	0.189
m1 = 0.09698	0.232
m1 = 0.09705	0.235
m1 = 0.1139	0.268
m1 = 0.1146	0.267
m1 = 0.1298	0.298
m1 = 0.1307	0.297
m1 = 0.1464	0.324
m1 = 0.1479	0.328
m1 = 0.1614	0.35
m1 = 0.1638	0.355
m1 = 0.1771	0.372
m1 = 0.1802	0.383
m1 = 0.1918	0.395
m1 = 0.1952	0.408
m1 = 0.2064	0.42
m1 = 0.2106	0.434
m1 = 0.2201	0.44
m1 = 0.2246	0.456
m1 = 0.2336	0.46
m1 = 0.2384	0.478
m1 = 0.2466	0.48
m1 = 0.2514	0.496
m1 = 0.2596	0.498
m1 = 0.2644	0.516
m1 = 0.2712	0.513
m1 = 0.2766	0.528
m1 = 0.283	0.525
m1 = 0.2887	0.542
m1 = 0.294	0.54
m1 = 0.2998	0.558
m1 = 0.3048	0.556
m1 = 0.311	0.572
m1 = 0.3148	0.571
m1 = 0.3214	0.586
m1 = 0.3247	0.583
m1 = 0.3317	0.6
m1 = 0.334	0.596
m1 = 0.3412	0.611
m1 = 0.343	0.607
m1 = 0.3505	0.624
m1 = 0.3515	0.619
m1 = 0.3593	0.634
m1 = 0.3599	0.629
m1 = 0.3677	0.639
m1 = 0.3679	0.646
m1 = 0.3758	0.656

CCCCC(=O)O.OCCNCCO [diethanolamine pentanoate] + O
Details	electrical conductivity [S/m]
m1 = 0.01462	0.055
m1 = 0.01705	0.064
m1 = 0.03093	0.108
m1 = 0.03218	0.116
m1 = 0.04874	0.161
m1 = 0.0491	0.168
m1 = 0.06476	0.204
m1 = 0.06559	0.215
m1 = 0.08109	0.279
m1 = 0.08267	0.268
m1 = 0.09793	0.328
m1 = 0.09939	0.312
m1 = 0.1159	0.375
m1 = 0.117	0.365
m1 = 0.1326	0.42
m1 = 0.133	0.408
m1 = 0.1488	0.449
m1 = 0.1507	0.47
m1 = 0.163	0.486
m1 = 0.1668	0.512
m1 = 0.1779	0.524
m1 = 0.1838	0.557
m1 = 0.1916	0.526
m1 = 0.1994	0.595
m1 = 0.2058	0.558
m1 = 0.2152	0.634
m1 = 0.2197	0.593
m1 = 0.2297	0.669
m1 = 0.2336	0.624
m1 = 0.2447	0.706
m1 = 0.2467	0.655
m1 = 0.2584	0.739
m1 = 0.26	0.685
m1 = 0.2721	0.767
m1 = 0.2723	0.711
m1 = 0.2848	0.739
m1 = 0.2851	0.795
m1 = 0.2965	0.755
m1 = 0.2976	0.822
m1 = 0.3079	0.789
m1 = 0.3096	0.848
m1 = 0.3188	0.811
m1 = 0.3214	0.874
m1 = 0.3321	0.896
m1 = 0.3396	0.835
m1 = 0.3428	0.918
m1 = 0.3494	0.854
m1 = 0.3527	0.94
m1 = 0.3585	0.876
m1 = 0.3625	0.96
m1 = 0.3675	0.893
m1 = 0.3716	0.979
m1 = 0.376	0.914
m1 = 0.3806	0.999
m1 = 0.3844	0.925
m1 = 0.389	1.01
m1 = 0.3921	0.925
m1 = 0.3973	1.03
m1 = 0.3997	0.925
m1 = 0.4069	0.973
m1 = 0.4446	0.991
